Assay results as given in patent publication US6117841A, “Substituted peptidylamine calcium channel blockers” (Warner-Lambert Company, priority 1999, dated 2000).
Where two headings read alike, the source gives them in different places.

Target: T1, N-type Ca^2+ Channel (Homo sapiens, UniProt Q00975)
T1 construct: host or cells: IMR-32 cells differentiated with dibutyryl cAMP and bromodeoxyuridine
Experiment: Measurement of N-type Ca2+ channel blocking potencies in IMR-32 cells using the fluorescent Ca2+ indicator Indo-1
Assay type: cell-based
Conditions: IMR-32 cells
Outline: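 IMR-32 cells were differentiated 7–13 days (1 mM dibutyryl cAMP, 2.5 µM BrdU) and Indo-1-loaded. They were preincubated 10 min at 30 °C with compound and 5 µM nitrendipine in HEPES/Tris pH 7.4 HBSS with 0.5% BSA, then KCl/CaCl2-depolarized. The peak-minus-basal 400/490 nm emission ratio gave IC50 by four-parameter logistic fit.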

[1] = 5 μM nitrendipine, Examples 116-140, read-out: IMR 32% of Blockade @
[2] = K+ depolarization, 5 μM nitrendipine to block L-type channels, read-out: IMR 32 IC50

T1 sequence (Q00975 whole entry): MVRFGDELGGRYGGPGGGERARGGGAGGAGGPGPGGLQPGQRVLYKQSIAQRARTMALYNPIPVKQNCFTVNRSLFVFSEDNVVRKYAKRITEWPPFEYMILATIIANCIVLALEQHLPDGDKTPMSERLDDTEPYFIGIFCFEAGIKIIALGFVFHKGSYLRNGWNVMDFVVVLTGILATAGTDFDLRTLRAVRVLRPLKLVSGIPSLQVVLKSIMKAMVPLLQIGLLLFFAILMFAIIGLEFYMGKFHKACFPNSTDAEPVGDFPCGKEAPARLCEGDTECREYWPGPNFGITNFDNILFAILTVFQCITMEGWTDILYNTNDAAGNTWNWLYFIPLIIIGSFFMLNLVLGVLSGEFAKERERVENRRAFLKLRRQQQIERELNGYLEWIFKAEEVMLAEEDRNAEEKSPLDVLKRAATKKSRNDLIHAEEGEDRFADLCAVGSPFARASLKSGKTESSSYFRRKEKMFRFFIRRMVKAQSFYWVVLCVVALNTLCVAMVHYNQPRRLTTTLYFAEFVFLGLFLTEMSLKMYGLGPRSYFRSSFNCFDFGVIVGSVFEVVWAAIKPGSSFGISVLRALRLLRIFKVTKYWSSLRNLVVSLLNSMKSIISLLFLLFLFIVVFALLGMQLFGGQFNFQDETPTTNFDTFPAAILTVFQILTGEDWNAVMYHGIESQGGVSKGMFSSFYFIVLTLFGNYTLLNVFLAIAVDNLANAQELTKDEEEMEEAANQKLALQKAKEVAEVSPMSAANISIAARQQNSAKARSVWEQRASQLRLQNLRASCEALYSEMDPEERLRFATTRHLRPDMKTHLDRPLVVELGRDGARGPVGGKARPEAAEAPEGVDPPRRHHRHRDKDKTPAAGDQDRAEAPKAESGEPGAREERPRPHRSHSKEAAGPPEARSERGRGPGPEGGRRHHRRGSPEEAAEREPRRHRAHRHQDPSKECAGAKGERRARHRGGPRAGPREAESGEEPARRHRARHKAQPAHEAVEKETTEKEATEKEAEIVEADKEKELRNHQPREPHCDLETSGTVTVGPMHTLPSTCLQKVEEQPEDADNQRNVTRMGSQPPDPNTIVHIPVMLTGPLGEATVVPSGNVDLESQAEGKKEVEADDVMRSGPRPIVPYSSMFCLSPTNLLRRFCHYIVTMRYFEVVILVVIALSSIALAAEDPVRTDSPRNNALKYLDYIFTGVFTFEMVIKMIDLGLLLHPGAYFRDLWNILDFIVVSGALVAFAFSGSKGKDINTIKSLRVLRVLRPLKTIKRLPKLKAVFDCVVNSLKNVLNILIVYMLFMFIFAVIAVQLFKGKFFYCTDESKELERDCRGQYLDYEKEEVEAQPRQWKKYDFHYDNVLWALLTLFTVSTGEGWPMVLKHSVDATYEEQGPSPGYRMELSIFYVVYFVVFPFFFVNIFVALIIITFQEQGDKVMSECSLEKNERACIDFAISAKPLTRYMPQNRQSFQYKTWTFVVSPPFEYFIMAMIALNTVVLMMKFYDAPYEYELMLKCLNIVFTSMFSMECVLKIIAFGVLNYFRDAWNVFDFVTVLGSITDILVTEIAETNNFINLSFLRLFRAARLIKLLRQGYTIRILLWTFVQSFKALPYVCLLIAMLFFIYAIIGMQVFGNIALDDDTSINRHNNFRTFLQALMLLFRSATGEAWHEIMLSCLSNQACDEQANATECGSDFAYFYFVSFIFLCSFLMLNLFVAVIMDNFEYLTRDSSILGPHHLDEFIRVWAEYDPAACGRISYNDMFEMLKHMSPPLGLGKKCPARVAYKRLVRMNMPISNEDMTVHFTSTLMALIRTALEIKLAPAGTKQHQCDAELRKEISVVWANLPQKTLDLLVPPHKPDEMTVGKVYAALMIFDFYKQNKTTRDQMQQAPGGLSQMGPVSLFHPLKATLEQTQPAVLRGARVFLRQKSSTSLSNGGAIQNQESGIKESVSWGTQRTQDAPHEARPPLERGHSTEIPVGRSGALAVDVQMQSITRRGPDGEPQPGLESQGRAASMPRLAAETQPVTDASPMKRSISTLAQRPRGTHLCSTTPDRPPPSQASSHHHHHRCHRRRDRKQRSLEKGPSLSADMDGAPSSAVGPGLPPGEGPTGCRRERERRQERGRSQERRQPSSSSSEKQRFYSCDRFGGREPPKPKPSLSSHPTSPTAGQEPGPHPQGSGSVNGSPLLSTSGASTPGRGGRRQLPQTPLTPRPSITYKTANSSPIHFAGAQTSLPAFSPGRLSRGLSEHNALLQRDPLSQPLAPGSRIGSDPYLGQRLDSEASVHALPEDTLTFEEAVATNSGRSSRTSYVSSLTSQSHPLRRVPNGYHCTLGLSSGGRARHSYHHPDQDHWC
T1 sequence (P54284 whole entry partner): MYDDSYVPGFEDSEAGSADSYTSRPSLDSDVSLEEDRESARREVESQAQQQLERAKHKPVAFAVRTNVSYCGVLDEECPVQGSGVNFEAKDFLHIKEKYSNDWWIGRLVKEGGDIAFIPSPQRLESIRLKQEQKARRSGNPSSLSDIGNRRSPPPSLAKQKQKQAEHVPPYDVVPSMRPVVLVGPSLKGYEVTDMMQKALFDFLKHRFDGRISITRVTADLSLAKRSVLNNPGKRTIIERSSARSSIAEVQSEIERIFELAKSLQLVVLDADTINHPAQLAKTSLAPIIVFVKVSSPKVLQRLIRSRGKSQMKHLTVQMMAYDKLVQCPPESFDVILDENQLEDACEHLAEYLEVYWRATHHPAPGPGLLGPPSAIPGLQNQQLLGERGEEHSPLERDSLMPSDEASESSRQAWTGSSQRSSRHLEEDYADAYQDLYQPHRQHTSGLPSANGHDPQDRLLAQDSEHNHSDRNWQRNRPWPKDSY
T1 sequence (P54289 25-946 partner limits assumed): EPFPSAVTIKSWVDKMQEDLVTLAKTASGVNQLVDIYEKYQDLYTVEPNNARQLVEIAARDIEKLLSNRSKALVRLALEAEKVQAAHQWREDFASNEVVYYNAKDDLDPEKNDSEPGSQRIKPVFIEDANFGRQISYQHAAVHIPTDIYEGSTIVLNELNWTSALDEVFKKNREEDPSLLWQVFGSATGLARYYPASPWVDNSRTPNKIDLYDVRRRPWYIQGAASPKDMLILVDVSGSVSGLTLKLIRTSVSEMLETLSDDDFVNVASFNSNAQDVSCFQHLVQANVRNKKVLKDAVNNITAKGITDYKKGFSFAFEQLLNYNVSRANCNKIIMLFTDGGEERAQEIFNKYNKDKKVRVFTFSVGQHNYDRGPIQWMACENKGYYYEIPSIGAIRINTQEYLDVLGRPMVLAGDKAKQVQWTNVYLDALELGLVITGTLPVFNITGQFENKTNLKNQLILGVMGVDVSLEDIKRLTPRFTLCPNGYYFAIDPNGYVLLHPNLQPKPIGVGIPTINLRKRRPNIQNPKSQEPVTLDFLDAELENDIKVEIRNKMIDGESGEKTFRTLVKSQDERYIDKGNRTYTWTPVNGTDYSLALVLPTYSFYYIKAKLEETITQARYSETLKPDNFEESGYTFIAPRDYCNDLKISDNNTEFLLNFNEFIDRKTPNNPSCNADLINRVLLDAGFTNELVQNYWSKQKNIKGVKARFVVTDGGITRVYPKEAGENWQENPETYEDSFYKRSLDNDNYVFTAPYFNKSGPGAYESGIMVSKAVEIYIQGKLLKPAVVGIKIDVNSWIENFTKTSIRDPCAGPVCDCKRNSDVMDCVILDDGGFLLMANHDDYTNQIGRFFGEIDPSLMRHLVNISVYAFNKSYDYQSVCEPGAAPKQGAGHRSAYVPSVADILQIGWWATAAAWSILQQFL
T1 sequence (P54289 947-1103 partner limits assumed): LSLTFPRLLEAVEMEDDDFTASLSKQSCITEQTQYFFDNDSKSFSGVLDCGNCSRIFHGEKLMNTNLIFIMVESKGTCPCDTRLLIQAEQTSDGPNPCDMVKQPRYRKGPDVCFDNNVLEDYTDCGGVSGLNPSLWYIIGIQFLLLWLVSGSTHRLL

Row | Molecule | IMR 32 % of Blockade @ 1 μM (5 μM nitrendipine) [%] | IMR 32 % of Blockade @ 10 μM (5 μM nitrendipine) [%] | IC50 [2] [nM] | also measured
1 | CC(C)C[C@@H](C(=O)N[C@@H](Cc1ccc(OCc2ccccc2)cc1)C(=O)NCCN1CCCCC1)N(C)C (relative stereo) [Example 3, [S-(R*,R*)]-2-Dimethylamino-4-methyl-pentanoic acid [2-(4-benzyloxy-phenyl)-1-(2-piperidin-1-yl-ethylcarbamoyl)-ethyl]-amide] | 21 | 70 |  | 
2 | [S-(R*,R*)]-4-Methyl-2-(tetrahydropyran-4-yl-amino)-pentanoic acid [2-(4-benzyloxy-phenyl)-1-(2-pyrrolidine-1-yl-ethylcarbamoyl]-amide [Example 130] |  |  |  | IC50 [1]: 6500 nM
3 | CC(C)CCN(C)C(CC(C)C)C(=O)NC(Cc1ccc(OCc2ccccc2)cc1)C(=O)NCCNCCO (stereo not drawn) [Example 66, [S-(R*,R*)]-4-Methyl-2-[methyl-(3-methyl-butyl)-amino]-pentanoic acid {2-(4-benzyloxy-phenyl)-1-[2-(2-hydroxy-ethylamino)-ethylcarbamoyl]-ethyl}-amide] |  |  | 1900 | 
4 | CC(C)C[C@H](NC1CCOCC1)C(=O)N[C@@H](Cc1ccc(OCc2ccccc2)cc1)C(=O)NCCN1CCOCC1 (relative stereo) [Example 127, [S-(R*,R*)]-4-Methyl-2-(tetrahydropyran-4-yl-amino)-pentanoic acid [2-(4-benzyloxy-phenyl)-1-(2-morpholin4-yl-ethylcarbamoyl)-ethyl]-amide] |  |  |  | IC50 [1]: 7500 nM
5 | CC(C)C[C@@H](C(=O)N[C@@H](Cc1ccc(OCc2ccccc2)cc1)C(=O)N1CCN(Cc2ccccc2)CC1)N(C)Cc1ccc(C(C)(C)C)cc1 (relative stereo) [Example 16, [S-(R*,R*)-2-[(4-tert-Butyl-benzyl)-methyl-amino]-4-methyl-pentanoic acid [1-(4-benzyloxy-benzyl)-2-(4-benzyl-piperazin-1-yl)-2-oxo-ethyl]-amide] | 41 | 66 |  | 
6 | CC(C)CCN(C)[C@@H](CC(C)C)C(=O)N[C@@H](Cc1ccc(OCc2ccccc2)cc1)C(=O)NCCN1CCOCC1 (relative stereo) [Example 57, [S-(R*,R*)]-4-Methyl-2-[methyl-(3-methyl-butyl)-amino]-pentanoic acid [2-(4-benzyloxy-phenyl)-1-(2-morpholin-4-yl-ethylcarbamoyl)-ethyl]-amide] |  |  | 2100 | 
7 | CC(C)C[C@H](NCC1CCCCC1)C(=O)N[C@@H](Cc1ccc(OCc2ccccc2)cc1)C(=O)OC(C)(C)C (relative stereo) [Example 91, [S-(R*,R*)]-3-(4Benzyloxy-phenyl)-2-[2-(cyclohexylmethyl-amino)-4-methyl-pentanoylamino]-propionic acid tert-butyl ester] |  |  | 300 | 
8 | CC(C)CC(C(=O)NC(Cc1ccc(OCc2ccccc2)cc1)C(=O)NC(C)(C)C)N(C)Cc1ccccc1 (stereo not drawn) [Example 54, [S-(R*,R*)]-2-(Benzyl-methyl-amino)-4-methyl-pentanoic acid [2-(4-benzyloxy-phenyl)-1-tert-butylcarbamoyl-ethyl]-amide] |  |  | 360 | 
9 | CC(C)CCN(C)[C@@H](CC(C)C)C(=O)N[C@@H](Cc1ccc(OCc2ccccc2)cc1)C(=O)N1CCN(C)CC1 (relative stereo) [Example 12, [S-(R*,R*)]-4-Methyl-2-[methyl-(3-methyl-butyl)-amino]-pentanoic acid [1-(4-benzyloxy-benzyl)-2-(4-methyl-piperazin-1-yl)-2-oxo-ethyl]-amide] | 39 | 88 |  | 
10 | CC(C)C[C@@H](C(=O)N[C@@H](Cc1ccc(OCc2ccccc2)cc1)C(=O)NC(C)(C)C)N(C)Cc1ccc(O)cc1 (relative stereo) [Example 82, [S-(R*,R*)]-2-[(4-Hydroxy-benzyl)-methyl-amino]-4-methyl-pentanoic acid [2-(4-benzyloxy-phenyl)-1-tert-butylcarbamoyl-ethyl]-amide] |  |  | 1300 | 
